Measured values reported in publication PMC12453120, “TrkA of Streptococcus mitis CCUG31611 binds cyclic di-adenosine monophosphate and is required for growth in low potassium conditions” (Microbiology, 2025).
Blank lines part the entries; values can stand above or below the compound they belong to.

Legend:
TrkA = biological target: T1, TrkA (Streptococcus mitis, UniProt A0ACG7RC27); assay: nanoDSF, isothermal FoldAffinity fit; format: binding; conditions: 500 nM TrkA, 150 mM KCl, 20 mM HEPES, 10% glycerol, pH 7.5
T1 construct: gene SM12261_0089; full-length ORF (1-221 aa), N-terminal 6xHis tag kept, pET30b, E. coli BL21(DE3); Ni-NTA + SEC; two bands on SDS-PAGE, both TrkA by MS; MS peptide positions up to 227 include the tag
T1 sequence (A0ACG7RC27 1-221): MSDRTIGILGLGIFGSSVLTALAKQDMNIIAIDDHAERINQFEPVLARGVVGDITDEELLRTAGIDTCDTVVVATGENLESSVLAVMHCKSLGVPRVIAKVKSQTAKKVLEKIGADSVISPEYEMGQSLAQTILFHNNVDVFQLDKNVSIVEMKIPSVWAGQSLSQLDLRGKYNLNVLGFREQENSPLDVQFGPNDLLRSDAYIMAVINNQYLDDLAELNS
Excerpt: nanoDSF, isothermal FoldAffinity fit on TrkA

[1] = biological target: TrkA of Streptococcus mitis CCUG31611 (SM12261_0089), recombinant with N-terminal 6x His-tag (Streptococcus mitis CCUG31611); assay: SEC; Sepharose 6 Increase 10-300 GL column, AKTA pure; 150 mM KCl, 20 mM HEPES, pH 7.5; flow 0.2 ml/min; MW estimated from a standard curve of gel filtration markers (12,000-200,000 Da), logMW vs VE/V0
[2] = Tiso 52 °C, unreliable (above the highest ligand concentration, 500 µM)

Compound: Nc1ncnc2c1ncn2[C@@H]1O[C@H](COP(=O)(O)O)[C@@H](O)[C@H]1O [AMP]
Kd,app (μM)‡ (TrkA; Tiso 54 °C, unreliable (above the highest ligand concentration, 500 µM)): 2,050.000 ± 494.975 µM

Compound: Nc1ncnc2c1ncn2[C@@H]1O[C@H](COP(=O)(O)OP(=O)(O)OP(=O)(O)O)[C@@H](O)[C@H]1O [ATP]
Kd,app (μM)‡ (TrkA; [2]): 2,610.000 ± 2390.021 µM

Compound: Nc1nc2c(ncn2[C@@H]2O[C@@H]3COP(=O)(O)O[C@H]4[C@@H](O)[C@H](n5cnc6c(=O)[nH]c(N)nc65)O[C@@H]4COP(=O)(O)O[C@H]3[C@H]2O)c(=O)[nH]1 [c-di-GMP]
Kd,app (μM)‡ (TrkA; Tiso 54 °C, unreliable (far above the highest ligand concentration, 500 µM)): 100,000.000 ± 0.000 µM

Compound: Nc1ncnc2c1ncn2[C@@H]1O[C@H](COP(=O)(O)O[C@H]2[C@@H](O)[C@H](n3cnc4c(N)ncnc43)O[C@@H]2COP(=O)(O)O)[C@@H](O)[C@H]1O [pApA]
Kd,app (μM)‡ (TrkA; [2]): 1,650.000 ± 494.975 µM

stoichiometry N [1]: 8
Compound: TrkA of Streptococcus mitis CCUG31611 (SM12261_0089), recombinant with N-terminal 6x His-tag (natural protein)
